# According to patent US20100184708A1, “USE OF GLY-PRO-GLU-OH (GPE) AS A THERAPEUTIC AGENT” (priority 2007, published 2010):
# System: drug-resistant Mycobacterium tuberculosis
# Settings: peptide 10 micrograms per ml, seven days
compound,measurement,value
"NCC(=O)N1CCC[C@H]1C(=O)N[C@@H](CCC(=O)O)C(=O)O [IGF-I (1-3), Gly-Pro-Glu-OH]",% inhibition,0.0%
